Results as given in patent US20020115724A1, “Methods and agents for inhibiting protein aging” (priority 1985, published 2002).
Structures can show the parent of a compound that is named as a salt.

Columns and labels:
[1] = tested on: streptozotocin-diabetic rat; conditions: streptozotocin-diabetic rat model; cited from earlier work
normal and diabetic rats = assay: IgG bound to glomerular basement membranes, enzyme immunoassay; format: in vivo, rat; conditions: 25 mg/kg daily intraperitoneal, 16 weeks
Method: To measure the level of advanced glycosylation end products in vivo, the kidneys of rats were examined for serum proteins which had become attached to glomerular basement membranes. This was determined to be a good model in which to study this process as it is known that significant kidney pathology occurs in untreated diabetes as a result of the buildup of extravasated plasma protein in the extravascular matrix in this organ.
The experiment consisted of giving both normal and diabetic rats daily intraperitoneal doses of the agent aminoguanidine hydrochloride at a dose of 25 mg per kilogram of body weight, for a period of 16 weeks. […] Diabetes was induced prior to drug therapy with a single dose of streptozotocin. Control animals, both diabetic and normal, received no drug.
At the end of the agent therapy, animals were sacrificed and the kidneys were removed. Each organ was removed from its capsule and the medulla was removed. […]
After overnight incubation to allow the antibody to bind to any IgG crosslinked to the glomerular basement membranes, the membranes were pelleted by centrifugation at 3200 rpm for five minutes and were washed free of the unbound antibody-enzyme conjugate with four rinses with PBS plus Tween followed by three rinses with distilled water. […] The reaction was stopped with the addition of 0.2 mL of M sodium hydroxide, and the absorbance at 400 nm was measured.

[2] = tested on: diabetic New Zealand white rabbits; assay: Red blood cell deformability in long-term diabetic rabbits; format: in vivo, rabbit; conditions: for Red Blood Cell Deformability Index: diabetic rabbits, 100 mg/kg/day oral gavage
Excerpt: New Zealand white rabbits, with induced, long-term diabetes (12.7±3.2 months) are used to study the effects of a test compound on red blood cell (RBC) deformability. If glucose-mediated crosslinking of red blood cell components results in less deformable, more rigid membrane, then therapy should prevent this change in new red cells. Red blood cells already in existence at the initiation of therapy would be unaffected; because RBCs are replaced frequently newly formed red blood cells would be exposed to the therapy. […] The test compound is administered at a rate of 100 mg/kg/day by oral gavage.
The deformability index (DI) (filtration rate of buffer/filtrate rate of suspended RBCs; hematocrit=4.0%) is used as a measure of RBC deformability. Buffer and suspended RBCs are filtered through a 3 μ micropore membrane (Nucleopore Corp., Pleasanton, Calif.) with a pressure of […] at 37° C. A reference range for RBC deformability (2.67 to 4.84, mean 4.02±0.69) and % hemoglobin glycosylation (1.7 to 3.96, mean 2.60±0.70) is obtained from a group of normal New Zealand white rabbits (n=14), matched for age, sex and weight.
The results are given in Table III, below for diabetic New Zealand white rabbits dosed with 100 mg/kg/day aminoguanidine.

N=C(N)NN [aminoguanidine hydrochloride]
increased glomerular basement membrane thickness [1]: prevented
IgG bound to glomerular basement membranes (normal and diabetic rats; diabetic rats): the same low level of IgG in normal animals
IgG bound to glomerular basement membranes (normal and diabetic rats; normal rats): about the same low level
Red Blood Cell Deformability Index ([2]; 0 weeks of dosing (baseline)): 18.32 ± 6.03
Red Blood Cell Deformability Index ([2]; 4 weeks of dosing): 7.17 ± 3.12
Red Blood Cell Deformability Index ([2]; 8 weeks of dosing): 6.83 ± 2.97
Red Blood Cell Deformability Index ([2]; 12 weeks of dosing): 4.64 ± 1.58
Red Blood Cell Deformability Index ([2]; 16 weeks of dosing): 4.44 ± 1.33
Red Blood Cell Deformability Index ([2]; 20 weeks of dosing): 4.14 ± 1.06
effect on diabetes-induced increased deformability index ([2]; long-term diabetic rabbits, delayed treatment): to normal after 12 weeks
RBC deformability index ([2]; separate experiment, daily administration from the time of induction of diabetes): never became abnormal
